ChEMBL document CHEMBL1151068, “Rollimembrin, a novel acetogenin inhibitor of mammalian mitochondrial complex I” (Bioorg Med Chem Lett, 1997)

molecular target: Mitochondrial complex I; NADH oxidoreductase (Bos taurus, UniProt P25708+P52505); assay: Concentration required for the inhibition of NADH oxidase in submitochondrial particles from beef heart; format: protein-complex assay
Sequence (P25708 21-464 limits assumed, other chains not shown): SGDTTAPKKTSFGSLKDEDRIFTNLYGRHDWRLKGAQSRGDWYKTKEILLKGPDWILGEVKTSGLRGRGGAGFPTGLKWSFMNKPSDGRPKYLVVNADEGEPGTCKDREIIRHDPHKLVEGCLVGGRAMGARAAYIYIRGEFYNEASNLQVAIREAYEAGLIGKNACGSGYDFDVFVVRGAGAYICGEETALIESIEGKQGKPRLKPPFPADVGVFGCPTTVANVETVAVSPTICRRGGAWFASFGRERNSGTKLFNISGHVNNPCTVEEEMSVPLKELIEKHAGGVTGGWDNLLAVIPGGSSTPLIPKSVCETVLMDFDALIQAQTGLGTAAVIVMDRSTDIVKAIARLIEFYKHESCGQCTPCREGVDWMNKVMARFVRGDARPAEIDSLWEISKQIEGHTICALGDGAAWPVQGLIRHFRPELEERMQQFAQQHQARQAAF

Structure (SMILES)	IC50
CCCCCCCCCC[C@H](O)[C@H]1CC[C@@H]([C@@H]2CC[C@H]([C@H](O)CCCCCCCC[C@@H](O)CC3=C[C@@H](C)OC3=O)O2)O1	0.33 nM
CCCCCCCCCC[C@H](O)[C@H]1CC[C@@H]([C@@H]2CC[C@H]([C@H](O)CCCCCCCCCC[C@@H](O)CC3=C[C@@H](C)OC3=O)O2)O1	0.58 nM
CCCCCCCCCC[C@H](O)[C@H]1CC[C@@H]([C@@H]2CC[C@H]([C@H](O)CCCCCCCCCCCCC3=C[C@@H](C)OC3=O)O2)O1	0.58 nM
